Like-named read-outs stand apart in the source and are kept apart here.
Experiments:
[1] = cited from earlier work
[2] = Antibiotic concentrations in porcine oral fluid after intramuscular application (UHPLC-MS/MS); assay type: in vivo; settings: pigs, i.m.; for concentration at 1 d / concentration at 2 d / concentration at 3 d / concentration at 4 d / concentration at 5 d / concentration at 6 d / concentration at 7 d / concentration at 8 d / concentration at 9 d / concentration at 10 d / concentration at 11 d / concentration at 12 d / concentration at 13 d / concentration at 14 d / concentration at 15 d / concentration at 16 d / concentration at 17 d / concentration at 18 d / concentration at 19 d / concentration at 20 d / concentration at 21 d / concentration at 22 d / concentration at 23 d / concentration at 24 d / concentration at 25 d / concentration at 26 d / concentration at 27 d / concentration at 28 d / concentration at 29 d / concentration at 30 d: male, (Landrace × Yorkshire) × Duroc crossbred (DanBred sows), pig, intramuscular; for concentration at 1 d / concentration at 2 d / concentration at 3 d / concentration at 4 d / concentration at 5 d / concentration at 6 d / concentration at 7 d / concentration at 8 d / concentration at 9 d / concentration at 10 d / concentration at 11 d / concentration at 12 d / concentration at 13 d / concentration at 14 d / concentration at 15 d / concentration at 16 d / concentration at 17 d / concentration at 18 d / concentration at 19 d / concentration at 20 d / concentration at 21 d / concentration at 22 d / concentration at 23 d / concentration at 24 d / concentration at 25 d / concentration at 26 d / concentration at 27 d / concentration at 28 d / concentration at 29 d / concentration at 30 d / concentration in oral fluid at withdrawal period / Avarage Concentrations in oral fluid: oral fluid; for concentration in oral fluid at withdrawal period: at the end of the withdrawal period for tissues of each drug (Table 3); for distribution to oral fluid: conclusion in words
Method: All animals were born in the sow farm (8000 DanBred sows) located in Northern Poland, after crossing ♀(♂Landrace × ♀Yorskshire) × ♂Duroc. Piglets were weaned after 4 weeks of lactation with an average weight of 6 kg and then moved to the weaner stable (23,000 weaners). After the next 7 weeks, animals were transported to the 9000-places fattening farm with an average body weight of 28 kg, where the trial was performed. All farms in the aforementioned three-phase model used weekly batches and an all-in all-out system. Specialist veterinary and production management care were provided in each location.
For the purpose of the study, 240 immunologically castrated boars were divided into 8 groups, 30 animals in each pen. For the control group, 30 pigs were used in separate pens. Their initial body weight was between 40 and 60 kg. Pigs were housed at 20–25 °C. Fatteners were fed ad libitum with antimicrobial-free water and feed provided by feeders throughout the study. Before the experiment, water and feed were checked for antimicrobials, and no antimicrobial treatments were administered to these pigs before. All animals in one pen were treated due to the same health issue using disposable needles and the same drug and dosage. Pens were separated from each other with concrete walls. The drugs and dosage administered to each experimental group with an indication of withdrawal period for tissues are listed in Table 3. The oral fluid samples were collected using three cotton ropes (70 cm length with 1 cm diameter) in each pen suspended separately for 25 min on the front wall of the pen with bottoms at the pigs’ shoulder height, away from water and feed.
The research material was one pooled sample of oral fluid from 10 pigs, in triplicate, per pen. Ropes were removed immediately after collection. The first oral fluid sample was collected 24 h after the first injection. The collection of each subsequent sample took place at the same time (11:30 A.M.) for 35 consecutive days. Additionally, oral fluid samples were collected from pigs not treated with any antibiotics. Oral fluid from each pen was pooled into one 50-mL Falcon plastic tube and centrifuged at 9447× rcf for 15 min. Centrifuged material was transferred to a 15 mL plastic tube and frozen at −20 °C until analysis.
Before the analysis, the oral fluid samples were centrifuged at 9447× rcf. Next, an aliquot (1 mL) of oral fluid was placed into a 2 mL polypropylene centrifuge tube, and the 30 µL of the internal standard at the concentration of 2 µg/mL was added. For the extraction of analysed antibiotics, 600 µL of 0.5% formic acid was added, vortexed for 30 s and centrifuged for 10 min at 9447× rcf. Then, the supernatant was filtered through a […] PVDF filter into an amber glass vial before chromatographic analysis.
The mass spectrometry detection was operated in the positive ESI mode with multiple reaction monitoring (MRM).

[3] = first day of medication (abstract), read-out: concentration in oral fluid on the first day of medication
[4] = time 1 d (24 h after first injection), treatment period, read-out: Avarage Concentrations in oral fluid
[5] = treatment period, read-out: Avarage Concentrations in oral fluid
[6] = time 4 d, posttreatment, read-out: Avarage Concentrations in oral fluid
[7] = posttreatment, read-out: Avarage Concentrations in oral fluid
[8] = time 30 d, posttreatment, read-out: Avarage Concentrations in oral fluid
[9] = time 1 d (24 h after first injection), treatment period

| Compound | concentration at 1 d [2, 3] | concentration at 1 d [2, 4] | concentration at 2 d [2, 5] | concentration at 3 d [2, 5] | concentration at 4 d [2, 6] | concentration at 5 d [2, 7] | concentration at 6 d [2, 7] | concentration at 7 d [2, 7] | concentration at 8 d [2, 7] | concentration at 9 d [2, 7] | concentration at 10 d [2, 7] | concentration at 11 d [2, 7] | concentration at 12 d [2, 7] | concentration at 13 d [2, 7] | concentration at 14 d [2, 7] | concentration at 15 d [2, 7] | concentration at 16 d [2, 7] | concentration at 17 d [2, 7] | concentration at 18 d [2, 7] | concentration at 19 d [2, 7] | also measured |
| --- | --- | --- | --- | --- | --- | --- | --- | --- | --- | --- | --- | --- | --- | --- | --- | --- | --- | --- | --- | --- | --- |
| COc1ncnc(NS(=O)(=O)c2ccc(N)cc2)c1OC [SDX, sulfadoxine] | 22300 ng/g | 22300 ng/mL | 5860 ± 1160 ng/mL | 4570 ± 766 ng/mL | 4010 ng/mL | 5780 ± 788 ng/mL | 4070 ± 669 ng/mL | 310 ± 98 ng/mL | 392 ± 88 ng/mL | 386 ± 72 ng/mL | 134 ± 49 ng/mL | 247 ± 62 ng/mL | 74.8 ± 21 ng/mL | 68 ± 16 ng/mL | 77.4 ± 18 ng/mL | 69.8 ± 14 ng/mL | 78.4 ± 12 ng/mL | 47 ± 18 ng/mL | 44.2 ± 16 ng/mL | 58.4 ± 11 ng/mL | pKa ([1]; weak organic acid): 6.16; concentration at 20 d [2, 7]: 76.4 ± 14 ng/mL; concentration at 21 d [2, 7]: 21.4 ± 7.3 ng/mL; concentration at 22 d [2, 7]: 25.3 ± 6.9 ng/mL; concentration at 23 d [2, 7]: 15.9 ± 7.2 ng/mL; concentration at 24 d [2, 7]: 37 ± 5.4 ng/mL; concentration at 25 d [2, 7]: 31.5 ± 6.3 ng/mL; concentration at 26 d [2, 7]: 19.1 ± 4.2 ng/mL; concentration at 27 d [2, 7]: 19.3 ± 3.7 ng/mL; concentration at 28 d [2, 7]: 35 ± 8.1 ng/mL; concentration at 29 d [2, 7]: 30.4 ± 7.6 ng/mL; concentration at 30 d [2, 8]: 23 ng/mL; concentration in oral fluid at withdrawal period [2]: 247 ng/mL; Avarage Concentrations in oral fluid [2, 9]: 22,300 ± 3555 µg/L; Avarage Concentrations in oral fluid ([2]; time 4 d, posttreatment): 4010 ± 601 µg/L; Avarage Concentrations in oral fluid ([2]; time 30 d, posttreatment): 23.0 ± 6.2 µg/L; distribution to oral fluid [2]: high distribution |
| C=C[C@]1(C)C[C@@H](OC(=O)CSCCN(CC)CC)[C@]2(C)[C@H](C)CC[C@]3(CCC(=O)[C@H]32)[C@@H](C)[C@@H]1O [TIAM, tiamulin] | 7600 ng/g | 7600 ng/mL | 2520 ± 355 ng/mL | 2460 ± 311 ng/mL | 1560 ng/mL | 1540 ± 233 ng/mL | 2960 ± 299 ng/mL | 2570 ± 254 ng/mL | 875 ± 156 ng/mL | 567 ± 111 ng/mL | 621 ± 124 ng/mL | 279 ± 66 ng/mL | 254 ± 69 ng/mL | 138 ± 43 ng/mL | 269 ± 71 ng/mL | 156 ± 41 ng/mL | 279 ± 68 ng/mL | 182 ± 49 ng/mL | 176 ± 52 ng/mL | 202 ± 45 ng/mL | pKa [1]: 7.6; concentration at 20 d [2, 7]: 133 ± 36 ng/mL; concentration at 21 d [2, 7]: 148 ± 32 ng/mL; concentration at 22 d [2, 7]: 220 ± 44 ng/mL; concentration at 23 d [2, 7]: 146 ± 29 ng/mL; concentration at 24 d [2, 7]: 310 ± 55 ng/mL; concentration at 25 d [2, 7]: 193 ± 33 ng/mL; concentration at 26 d [2, 7]: 66.4 ± 12 ng/mL; concentration at 27 d [2, 7]: 54.3 ± 14 ng/mL; concentration at 28 d [2, 7]: 35.8 ± 17 ng/mL; concentration at 29 d [2, 7]: 40.6 ± 21 ng/mL; concentration at 30 d [2, 8]: 46.9 ng/mL; Avarage Concentrations in oral fluid [2, 9]: 7600 ± 1055 µg/L; Avarage Concentrations in oral fluid ([2]; time 4 d, posttreatment): 1560 ± 225 µg/L; Avarage Concentrations in oral fluid ([2]; time 30 d, posttreatment): 46.9 ± 19 µg/L; distribution to oral fluid [2]: high distribution |
| COc1cc(Cc2cnc(N)nc2N)cc(OC)c1OC [TRMP, trimethoprim] | 14100 ng/g | 14100 ng/mL | 2810 ± 556 ng/mL | 1810 ± 311 ng/mL | 1030 ± 221 ng/mL | 1400 ± 255 ng/mL | 1280 ± 198 ng/mL | 264 ± 73 ng/mL | 125 ± 41 ng/mL | 128 ± 38 ng/mL | 36.4 ± 15 ng/mL | 67.1 ± 20 ng/mL | 25.2 ± 9.6 ng/mL | 22 ± 8.7 ng/mL | 22.1 ± 6.4 ng/mL | 31.6 ± 11 ng/mL | 24.2 ± 8.2 ng/mL | 18.9 ± 4.8 ng/mL | 13 ± 3.6 ng/mL | 42 ± 14 ng/mL | concentration at 20 d [2, 7]: 36.4 ± 10 ng/mL; concentration at 21 d [2, 7]: 10.2 ± 4.4 ng/mL; concentration at 22 d [2, 7]: 46.4 ± 16 ng/mL; concentration at 23 d [2, 7]: 6.9 ± 2.4 ng/mL; concentration at 24 d [2, 7]: 19.4 ± 5.5 ng/mL; concentration at 25 d [2, 7]: 17.8 ± 4.1 ng/mL; concentration at 26 d [2, 7]: 15.9 ± 3.6 ng/mL; concentration at 27 d [2, 7]: 10.4 ± 2.9 ng/mL; concentration at 28 d [2, 7]: 16.5 ± 6.2 ng/mL; concentration at 29 d [2, 7]: 21.2 ± 9.4 ng/mL; concentration at 30 d [2, 8]: 22.4 ng/mL; concentration in oral fluid at withdrawal period [2]: 67.1 ng/mL; Avarage Concentrations in oral fluid [2, 9]: 14,100 ± 2556 µg/L; Avarage Concentrations in oral fluid ([2]; time 30 d, posttreatment): 22.4 ± 9.1 µg/L; distribution to oral fluid [2]: high distribution |

Source: article PMC8879095, “UHPLC-MS/MS Analysis of Antibiotics Transfer and Concentrations in Porcine Oral Fluid after Intramuscular Application” (Pharmaceuticals, 2022)
